Experimental data as given in ChEMBL document CHEMBL5291721, “A preclinical secondary pharmacology resource illuminates target-adverse drug reaction associations of marketed drugs” (Nat Commun, 2023).

Columns and labels:
[1] = molecular target: Beta-2 adrenergic receptor (Homo sapiens, UniProt P07550); format: functional, cell-based
[2] = molecular target: T1, Endothelin-1 receptor (Homo sapiens, UniProt P25101)
T1 sequence (P25101 whole entry): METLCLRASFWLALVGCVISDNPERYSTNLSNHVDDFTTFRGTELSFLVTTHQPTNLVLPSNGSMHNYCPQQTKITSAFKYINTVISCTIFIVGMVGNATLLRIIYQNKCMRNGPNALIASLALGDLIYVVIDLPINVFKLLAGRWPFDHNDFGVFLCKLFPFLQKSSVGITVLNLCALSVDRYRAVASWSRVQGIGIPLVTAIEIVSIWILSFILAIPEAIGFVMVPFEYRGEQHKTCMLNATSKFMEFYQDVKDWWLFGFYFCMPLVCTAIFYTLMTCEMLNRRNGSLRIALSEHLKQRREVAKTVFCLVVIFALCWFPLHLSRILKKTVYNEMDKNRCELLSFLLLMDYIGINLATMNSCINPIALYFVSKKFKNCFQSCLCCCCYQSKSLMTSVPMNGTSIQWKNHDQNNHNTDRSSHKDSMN

[3] = molecular target: T2, Alpha-1A adrenergic receptor (Homo sapiens, UniProt P35348); format: functional, cell-based
T2 sequence (P35348 whole entry): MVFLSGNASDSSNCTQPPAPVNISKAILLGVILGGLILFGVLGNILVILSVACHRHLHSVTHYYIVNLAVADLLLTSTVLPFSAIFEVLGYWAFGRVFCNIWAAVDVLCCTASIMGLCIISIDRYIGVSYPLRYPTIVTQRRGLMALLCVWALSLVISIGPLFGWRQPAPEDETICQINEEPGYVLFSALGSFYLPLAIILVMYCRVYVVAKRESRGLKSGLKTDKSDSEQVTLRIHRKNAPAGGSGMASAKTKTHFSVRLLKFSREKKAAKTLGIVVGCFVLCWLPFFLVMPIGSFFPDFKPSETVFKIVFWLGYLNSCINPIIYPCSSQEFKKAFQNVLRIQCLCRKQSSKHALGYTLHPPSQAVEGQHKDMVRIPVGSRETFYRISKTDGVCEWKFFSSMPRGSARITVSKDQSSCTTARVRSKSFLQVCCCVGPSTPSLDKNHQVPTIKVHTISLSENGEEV

[4] = molecular target: Histamine H2 receptor (Homo sapiens, UniProt P25021); format: functional, cell-based
[5] = molecular target: Gamma-aminobutyric acid receptor subunit alpha-1 (Rattus norvegicus, UniProt P62813)
[6] = molecular target: T3, Thromboxane A2 receptor (Homo sapiens, UniProt P21731)
T3 sequence (P21731 whole entry): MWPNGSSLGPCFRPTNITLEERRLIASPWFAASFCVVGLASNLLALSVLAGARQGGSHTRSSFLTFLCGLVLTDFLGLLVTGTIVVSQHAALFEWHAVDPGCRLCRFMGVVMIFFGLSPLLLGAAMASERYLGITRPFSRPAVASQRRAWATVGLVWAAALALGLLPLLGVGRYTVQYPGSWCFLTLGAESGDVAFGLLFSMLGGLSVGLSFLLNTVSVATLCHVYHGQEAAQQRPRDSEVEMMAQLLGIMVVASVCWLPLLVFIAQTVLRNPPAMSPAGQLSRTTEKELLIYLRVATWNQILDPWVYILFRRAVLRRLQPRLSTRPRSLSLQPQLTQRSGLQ

[7] = molecular target: T4, Estrogen receptor (Homo sapiens, UniProt P03372)
T4 sequence (P03372 whole entry): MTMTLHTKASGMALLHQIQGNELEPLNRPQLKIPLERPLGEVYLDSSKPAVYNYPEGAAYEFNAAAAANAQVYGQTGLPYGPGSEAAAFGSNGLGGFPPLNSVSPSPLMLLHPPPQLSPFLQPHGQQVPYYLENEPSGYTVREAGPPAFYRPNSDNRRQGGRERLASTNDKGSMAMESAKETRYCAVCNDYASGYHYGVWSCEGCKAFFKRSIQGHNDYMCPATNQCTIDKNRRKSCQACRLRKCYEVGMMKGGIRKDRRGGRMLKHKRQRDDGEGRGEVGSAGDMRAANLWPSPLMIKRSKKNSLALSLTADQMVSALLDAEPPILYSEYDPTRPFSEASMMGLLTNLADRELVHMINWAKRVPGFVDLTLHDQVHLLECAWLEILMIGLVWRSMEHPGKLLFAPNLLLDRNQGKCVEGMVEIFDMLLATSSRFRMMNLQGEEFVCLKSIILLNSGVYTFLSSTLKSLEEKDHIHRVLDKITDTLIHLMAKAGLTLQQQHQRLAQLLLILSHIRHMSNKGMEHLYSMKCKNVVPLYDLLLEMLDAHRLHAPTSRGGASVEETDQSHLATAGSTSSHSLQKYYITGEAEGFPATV

[8] = molecular target: T5, Amine oxidase [flavin-containing] A (Homo sapiens, UniProt P21397); format: functional
T5 sequence (P21397 whole entry): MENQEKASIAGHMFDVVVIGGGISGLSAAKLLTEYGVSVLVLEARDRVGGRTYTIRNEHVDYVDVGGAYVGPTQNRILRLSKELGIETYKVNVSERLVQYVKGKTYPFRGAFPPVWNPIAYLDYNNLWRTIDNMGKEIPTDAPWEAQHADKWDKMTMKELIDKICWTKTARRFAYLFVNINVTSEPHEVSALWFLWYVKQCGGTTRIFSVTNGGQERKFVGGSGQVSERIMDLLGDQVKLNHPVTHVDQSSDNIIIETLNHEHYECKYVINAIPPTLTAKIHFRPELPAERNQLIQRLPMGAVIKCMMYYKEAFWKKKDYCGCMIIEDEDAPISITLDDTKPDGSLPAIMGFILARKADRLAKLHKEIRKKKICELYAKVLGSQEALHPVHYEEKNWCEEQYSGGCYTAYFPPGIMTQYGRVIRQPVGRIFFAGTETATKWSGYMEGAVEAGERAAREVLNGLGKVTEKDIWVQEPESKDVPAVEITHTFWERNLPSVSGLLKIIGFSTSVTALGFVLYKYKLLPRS
Note: assay procedure not described here.

Sequence of Histamine H2 receptor (P25021 whole entry): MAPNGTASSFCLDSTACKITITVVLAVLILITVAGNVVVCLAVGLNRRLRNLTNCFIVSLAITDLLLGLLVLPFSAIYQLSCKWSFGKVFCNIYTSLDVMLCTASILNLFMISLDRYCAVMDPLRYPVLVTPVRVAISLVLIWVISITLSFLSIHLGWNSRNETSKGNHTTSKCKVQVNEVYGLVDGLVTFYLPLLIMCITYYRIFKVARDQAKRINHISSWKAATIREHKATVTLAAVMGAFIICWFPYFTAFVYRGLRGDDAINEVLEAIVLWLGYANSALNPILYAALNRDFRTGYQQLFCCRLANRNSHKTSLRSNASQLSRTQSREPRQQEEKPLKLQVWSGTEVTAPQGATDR
Sequence of Beta-2 adrenergic receptor (P07550 whole entry): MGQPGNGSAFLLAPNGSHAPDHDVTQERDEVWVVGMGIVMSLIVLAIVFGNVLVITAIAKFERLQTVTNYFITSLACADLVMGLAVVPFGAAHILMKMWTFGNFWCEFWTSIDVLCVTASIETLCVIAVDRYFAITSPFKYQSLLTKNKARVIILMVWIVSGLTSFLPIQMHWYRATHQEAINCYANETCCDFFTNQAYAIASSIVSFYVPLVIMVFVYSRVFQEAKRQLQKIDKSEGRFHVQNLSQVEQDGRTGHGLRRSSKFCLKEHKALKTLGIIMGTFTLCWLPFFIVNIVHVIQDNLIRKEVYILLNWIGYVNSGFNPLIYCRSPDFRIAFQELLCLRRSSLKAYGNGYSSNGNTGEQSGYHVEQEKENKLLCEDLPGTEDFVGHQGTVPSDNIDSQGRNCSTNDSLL
Sequence of Gamma-aminobutyric acid receptor subunit alpha-1 (P62813 whole entry): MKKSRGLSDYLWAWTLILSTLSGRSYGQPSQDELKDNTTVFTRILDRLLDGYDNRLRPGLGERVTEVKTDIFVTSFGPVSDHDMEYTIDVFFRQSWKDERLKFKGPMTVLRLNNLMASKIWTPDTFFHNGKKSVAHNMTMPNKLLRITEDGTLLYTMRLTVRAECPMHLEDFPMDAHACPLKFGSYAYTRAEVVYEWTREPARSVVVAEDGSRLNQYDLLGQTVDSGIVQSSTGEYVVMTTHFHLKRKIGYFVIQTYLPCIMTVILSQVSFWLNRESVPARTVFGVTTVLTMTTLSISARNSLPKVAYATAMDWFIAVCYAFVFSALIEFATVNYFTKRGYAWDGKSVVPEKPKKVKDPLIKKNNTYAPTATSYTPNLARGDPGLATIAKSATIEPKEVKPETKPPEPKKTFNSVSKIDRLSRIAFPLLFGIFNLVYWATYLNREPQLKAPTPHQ

| Compound | AC50 [1] [µM] | AC50 [2] [µM] | AC50 [3] [µM] | AC50 [4] [µM] | AC50 [5] [µM] | AC50 [6] [µM] | AC50 [7] [µM] | AC50 [8] [µM] |
| --- | --- | --- | --- | --- | --- | --- | --- | --- |
| CCOCC(O)COc1ccc(NC(=O)CC[S+](C)C)cc1 (stereo unspecified) | > 30 | > 30 | > 30 |  |  |  |  |  |
| CCC[C@@]1(CCc2ccccc2)CC(O)=C([C@H](CC)c2cccc(NS(=O)(=O)c3ccc(C(F)(F)F)cn3)c2)C(=O)O1 | > 30 | > 30 | > 30 |  |  |  |  |  |
| C=CC1=C(C(=O)O)N2C(=O)[C@@H](NC(=O)/C(=N\O)c3csc(N)n3)[C@H]2SC1 | > 30 |  | > 30 | > 10 | > 10 | > 30 |  |  |
| CN(C)CCc1c[nH]c2ccc(CS(=O)(=O)N3CCCC3)cc12 [ALMOTRIPTAN] | > 30 | > 30 | > 30 | > 30 | > 30 |  |  |  |
| NCCCNCCSP(=O)(O)O [AMIFOSTINE] | > 30 | > 30 | > 30 | > 30 | > 30 | > 30 |  |  |
| CN(C)CCC=C1c2ccccc2CCc2ccccc21 [AMITRIPTYLINE] |  | > 30 | > 30 |  | > 10 | > 30 | > 30 | > 30 |
| CN1CC2c3ccccc3Oc3ccc(Cl)cc3C2C1 (stereo unspecified) [ASENAPINE] | > 30 | > 30 | > 30 |  |  |  |  |  |
| Cn1cnc2c(F)c(Nc3ccc(Br)cc3F)c(C(=O)NOCCO)cc21 [BINIMETINIB] | > 30 | > 30 | > 30 |  |  |  |  |  |
| C[C@H](CS)C(=O)N1CCC[C@H]1C(=O)O [CAPTOPRIL] | > 30 |  | > 30 | > 30 | > 10 |  |  |  |
| CN(C)CCOC(c1ccc(Cl)cc1)c1ccccn1 (stereo unspecified) [CARBINOXAMINE] | > 30 | > 30 | > 30 | > 30 |  |  |  |  |
| CCN(CC)CCn1c(=O)c(Cc2ccc(OC)cc2)nc2ccccc21 [CAROVERINE] | > 30 | > 30 | > 30 | > 30 | > 30 | > 30 |  |  |
| C[C@H](CCC(=O)O)[C@H]1CC[C@H]2[C@@H]3[C@H](O)C[C@@H]4C[C@H](O)CC[C@]4(C)[C@H]3CC[C@]12C [CHENODIOL] | > 30 | > 30 | > 30 |  |  |  |  |  |
| O=C(O)[C@H]1/C(=C/CO)O[C@@H]2CC(=O)N21 [CLAVULANIC ACID] | > 30 | > 30 | > 30 |  |  |  |  |  |
| C[C@]12CC[C@@H]3c4ccc(OC(=O)N(CCCl)CCCl)cc4CC[C@H]3[C@@H]1CC[C@@H]2OP(=O)(O)O [ESTRAMUSTINE PHOSPHATE] |  |  |  |  |  |  | 2.03 | > 30 |
| O=c1[nH]c2ccccc2n1CCN1CCN(c2cccc(C(F)(F)F)c2)CC1 [FLIBANSERIN] |  |  |  |  |  |  | > 30 | > 30 |
| CCOC(=O)Nc1ccc(NCc2ccc(F)cc2)nc1N [FLUPIRTINE] | > 30 | > 30 |  | > 30 | > 30 | 29 |  |  |
| N=C(N)NCC1COc2ccccc2O1 (stereo unspecified) [GUANOXAN] |  |  |  |  |  |  | > 30 | > 30 |
| C[C@@H](O)[C@H]1C(=O)N2C(C(=O)O)=C(SCCN=CN)C[C@H]12 [IMIPENEM ANHYDROUS] | > 300 | > 300 | > 300 |  |  |  |  |  |
| N#Cc1ccnc(N2C(=O)CC[C@H]2C(=O)N(c2cncc(F)c2)[C@H](C(=O)NC2CC(F)(F)C2)c2ccccc2Cl)c1 [IVOSIDENIB] |  |  |  |  |  |  | > 30 | > 30 |

| Compound | AC50 [1] [µM] | AC50 [2] [µM] | AC50 [3] [µM] | AC50 [4] [µM] | AC50 [5] [µM] | AC50 [6] [µM] | AC50 [7] [µM] | AC50 [8] [µM] |
| --- | --- | --- | --- | --- | --- | --- | --- | --- |
| CNC1(c2ccccc2Cl)CCCCC1=O (stereo unspecified) [KETAMINE] |  |  |  |  |  |  | > 30 | > 30 |
| N[C@@H](Cc1cc(I)c(Oc2cc(I)c(O)c(I)c2)c(I)c1)C(=O)O [LEVOTHYROXINE] | > 30 | > 30 | > 30 | > 30 |  |  |  |  |
| CCCCCCO[C@@H](C)c1cccc(-c2csc(NC(=O)c3cc(Cl)c(/C=C(\C)C(=O)O)c(Cl)c3)n2)c1OC [LUSUTROMBOPAG] |  |  |  |  |  |  | 2.91 | > 30 |
| Cc1cc(C)cc(OCC2CNC(=O)O2)c1 (stereo unspecified) [METAXALONE] |  |  |  |  |  |  | > 30 | 15.4 |
| CO[C@@]1(NC(=O)C(C(=O)O)c2ccc(O)cc2)C(=O)N2C(C(=O)O)=C(CSc3nnnn3C)CO[C@@H]21 (stereo partly specified) [MOXALACTAM] |  |  |  |  |  |  | > 30 | > 30 |
| CO[C@@H]1[C@@H](OC(N)=O)[C@@H](O)[C@H](Oc2ccc3c(O)c(NC(=O)c4ccc(O)c(CC=C(C)C)c4)c(=O)oc3c2C)OC1(C)C [NOVOBIOCIN] | > 30 | > 30 | > 30 |  |  |  |  |  |
| CCCCCCCC/C=C\CCCCCCCC(=O)O [OLEIC ACID] |  |  |  |  |  |  | > 30 | > 30 |
| NC(=O)C1(N2CCCCC2)CCN(CCCC(=O)c2ccc(F)cc2)CC1 [PIPAMPERONE] |  |  |  |  |  |  | > 30 | > 30 |
| COc1cccc2c1C(=O)c1c(O)c3c(c(O)c1C2=O)C[C@@](O)(C(=O)CO)C[C@@H]3O[C@H]1C[C@H](N)[C@H](O[C@@H]2CCCCO2)[C@H](C)O1 [PIRARUBICIN] |  |  |  |  |  |  | > 30 | > 30 |
| CC(C)(Oc1ccc(Cl)cc1)C(=O)NC(=O)NCN1CCOCC1 [PLAFIBRIDE] |  |  |  |  |  |  | > 30 | > 30 |
| CC(C)NC[C@H](O)COc1ccc(O)cc1 [PRENALTEROL] |  |  |  |  |  |  | > 30 | > 30 |
| COc1cc2c(cc1OC)C1CC(=O)C(CC(C)C)CN1CC2 (stereo unspecified) [TETRABENAZINE] | > 30 | > 30 | > 30 |  |  |  |  |  |
| CC(C)(CO)c1cc2cc(NC(=O)C3(c4ccc5c(c4)OC(F)(F)O5)CC3)c(F)cc2n1C[C@@H](O)CO [TEZACAFTOR] | > 30 | > 30 | > 30 |  |  |  |  |  |
| CN1CCC(N(Cc2cccs2)c2ccccc2)CC1 [THENALIDINE] |  |  |  |  |  |  | > 30 | > 30 |
| Cc1ccc(C(C)C)c(O)c1 [THYMOL] |  |  |  |  |  |  | > 30 | > 30 |
| CN(C)CCN(Cc1ccccc1)c1ccccn1 [TRIPELENNAMINE] |  |  |  | > 10 | > 10 | > 10 | > 30 | > 30 |
| c1cnc2cc3c(cc2n1)[C@@H]1CNC[C@H]3C1 [VARENICLINE] | > 30 | > 30 | > 30 |  |  |  |  |  |
| Nc1c2c(nc3ccccc13)CCCC2O (stereo unspecified) [VELNACRINE] | > 30 | > 30 | > 30 |  |  |  |  |  |
